Reference: patent publication US20250179059A1 (The Regents of the University of California, priority 2021, published 2025)
Like-named read-outs stand apart in the source and are kept apart here.

Key:
[1] = system: human SKM-1 acute myeloid leukemia cells; assay: SKM-1 antiproliferation cell-based assay (ATPlite); conditions: Homo sapiens
Outline: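 Log-phase cells in RPMI 1640/15% FBS were seeded at 34722 cells/mL and exposed for 4 days to nine-concentration DMSO serial dilutions in triplicate. Viability was read as ATP luminescence (ATPlite 1step), and IC50 values came from variable-slope non-linear regression.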

[2] = biological target: T1, human BRD4 bromodomain II (Homo sapiens, UniProt O60885); assay: Bromodomain binding assay (AlphaScreen), BRD4 BDII
T1 construct: human BRD4 bromodomain II [based on Genbank NM_058243, residues 349-460]; host or cells: E. coli
Outline: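 Inhibition of acetyl-H4 peptide binding to human BRD4 bromodomains is measured by bead-based proximity (AlphaScreen) in pH 7.5 HEPES buffer containing 0.05% CHAPS and 0.1% BSA. Ten compound concentrations in 3-fold steps give competitive binding IC50s.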

[3] = SKM-1, SKM-1 antiproliferation assay
[4] = BRD4 BDII AlphaScreen assay, read-out: BRD4 BD2 IC50
[5] = SKM-1, 96 h, SKM-1 antiproliferation assay, 4 days, Table C2
[6] = AlphaScreen assay, Table C2, read-out: BRD4 BDII IC50

| Structure (SMILES) | GI50 [1, 3] | IC50 [2, 4] | GI50 [1, 5] | IC50 [2, 6] |
| --- | --- | --- | --- | --- |
| Cc1cc(-c2ccc(-n3ccn(C)c3=O)c(Cl)c2)c(O)c(-c2ccc(F)c(N3CCN(C(C)(C)C)CC3)c2)n1 [Example 1000, 1-(4-(2-(3-(4-(tert-butyl)piperazin-1-yl)-4-fluorophenyl)-3-hydroxy-6-methylpyridin-4-yl)-2-chlorophenyl)-3-methyl-1H-imidazol-2(3H)-one] | 0.3 to 30 nM | 1 to 10 nM |  |  |
| Cn1ccn(-c2ccc(-c3cc(F)cc(-c4ccnc(N5CC(C)(O)C6(CC6)C5)c4)c3O)cc2Cl)c1=O (stereo not drawn) [Example 779, 1-(3-chloro-5′-fluoro-2′-hydroxy-3′-(2-(7-hydroxy-7-methyl-5-azaspiro[2.4]heptan-5-yl)pyridin-4-yl)-[1,1′-biphenyl]-4-yl)-3-methyl-1H-imidazol-2(3H)-one] |  |  | 0.3 to 30 nM | 1 to 10 nM |
| Cn1ccn(-c2ccc(-c3cc(F)cc(-c4ccnc(C5=CCCNC5)c4)c3O)cc2Cl)c1=O [Example 657, 1-(3-chloro-5′-fluoro-2′-hydroxy-3′-(1′,2′,5′,6′-tetrahydro-[2,3′-bipyridin]-4-yl)-[1,1′-biphenyl]-4-yl)-3-methyl-1H-imidazol-2(3H)-one] |  |  | 0.3 to 30 nM | 0.01 to 1 nM |
| CNC(=O)c1cc(-c2cccc(-c3ccc(NC(C)=O)c(F)c3)c2O)cc(N2CCNCC2)n1 [Example 349, 4-(4′-acetamido-3′-fluoro-2-hydroxy-[1,1′-biphenyl]-3-yl)-N-methyl-6-(piperazin-1-yl)picolinamide] |  |  | 300 to 3000 nM | 10 to 100 nM |
| CN1CCN(c2ccc(-c3cc(F)cc(-c4cnc(N5CCOCC5)c(N5CCNCC5)c4)c3O)cc2Cl)C1=O [Example 415, 1-(3-chloro-5′-fluoro-2′-hydroxy-3′-(6-morpholino-5-(piperazin-1-yl)pyridin-3-yl)-[1,1′-biphenyl]-4-yl)-3-methylimidazolidin-2-one] |  |  | 30 to 300 nM | 1 to 10 nM |
| Cn1ccn(-c2ccc(-c3ccnc(-c4cccc(N5CCN(C(C)(C)C)CC5)c4)c3O)cc2Cl)c1=O [Example 979, 1-(4-(2-(3-(4-(tert-butyl)piperazin-1-yl)phenyl)-3-hydroxypyridin-4-yl)-2-chlorophenyl)-3-methyl-1H-imidazol-2(3H)-one] | 0.3 to 30 nM | 1 to 10 nM |  |  |
| Cn1ccn(-c2ccc(-c3cc(F)cc(-c4cncc(N5CCC(N)CC5)c4)c3O)cc2Cl)c1=O [Example 459, 1-(3′-(5-(4-aminopiperidin-1-yl)pyridin-3-yl)-3-chloro-5′-fluoro-2′-hydroxy-[1,1′-biphenyl]-4-yl)-3-methyl-1H-imidazol-2(3H)-one] |  |  | 0.3 to 30 nM | 1 to 10 nM |
| COCCCOc1cc(-c2cc(F)cc(-c3ccc(-n4ccn(C)c4=O)c(Cl)c3)c2O)cc(N2CCN[C@H](C)C2)n1 [Example 715, (R)-1-(3-chloro-5′-fluoro-2′-hydroxy-3′-(2-(3-methoxypropoxy)-6-(3-methylpiperazin-1-yl)pyridin-4-yl)-[1,1′-biphenyl]-4-yl)-3-methyl-1H-imidazol-2(3H)-one] |  |  | 0.3 to 30 nM | 0.01 to 1 nM |
| Cn1ccn(-c2ccc(-c3cc(F)cc(-c4cnnc(N5CCN(C(C)(C)C)CC5)c4)c3O)cc2Cl)c1=O [Example 798, 1-(3′-(6-(4-(tert-butyl)piperazin-1-yl)pyridazin-4-yl)-3-chloro-5′-fluoro-2′-hydroxy-[1,1′-biphenyl]-4-yl)-3-methyl-1H-imidazol-2(3H)-one] |  |  | 0.3 to 30 nM | 0.01 to 1 nM |
| COCC(C)(C)N1CCN(c2cc(-c3cc(F)cc(-c4ccc(-n5ccn(C)c5=O)c(Cl)c4)c3O)ccn2)CC1 [Example 724, 1-(3-chloro-5′-fluoro-2′-hydroxy-3′-(2-(4-(1-methoxy-2-methylpropan-2-yl)piperazin-1-yl)pyridin-4-yl)-[1,1′-biphenyl]-4-yl)-3-methyl-1H-imidazol-2(3H)-one] |  |  | 0.3 to 30 nM | 0.01 to 1 nM |
| O=C1NCCCN1c1ccc(-c2cc(F)cc(-c3ccnc(N4CCNCC4)c3)c2O)cc1F [Example 278, 1-(3,5′-difluoro-2′-hydroxy-3′-(2-(piperazin-1-yl)pyridin-4-yl)-[1,1′-biphenyl]-4-yl)tetrahydropyrimidin-2(1H)-one] |  |  | 300 to 3000 nM | 10 to 100 nM |
| O=C1CCCN1c1ccc(-c2cccc(-c3cccc(N4CCNCC4)c3)c2O)cc1F [Example 173, 1-(3-fluoro-2′-hydroxy-3″-(piperazin-1-yl)-[1,1′:3′,1″-terphenyl]-4-yl)pyrrolidin-2-one] |  |  | 300 to 3000 nM | 1 to 10 nM |
| COc1ncc(-c2cc(F)cc(-c3ccc(-n4ccn(C)c4=O)c(Cl)c3)c2O)cc1N1CC(C)(C)[C@](C)(O)C1 [Example 871] | 30 to 300 nM | 1 to 10 nM |  |  |
| CN1CCN(c2ccc(-c3cc(F)cc(-c4cc(N5CCNCC5)c5cn[nH]c5c4)c3O)cc2Cl)C1=O [Example 458, 1-(3-chloro-5′-fluoro-2′-hydroxy-3′-(4-(piperazin-1-yl)-1H-indazol-6-yl)-[1,1′-biphenyl]-4-yl)-3-methylimidazolidin-2-one] |  |  | 0.3 to 30 nM | 1 to 10 nM |
| Cc1ncc(-c2cc(F)cc(-c3ccc(-n4ccn(C)c4=O)c(Cl)c3)c2O)cc1N1CCN(C(C)(C)C)CC1 [Example 791, 1-(3′-(5-(4-(tert-butyl)piperazin-1-yl)-6-methylpyridin-3-yl)-3-chloro-5′-fluoro-2′-hydroxy-[1,1′-biphenyl]-4-yl)-3-methyl-1,3-dihydro-2H-imidazol-2-one] |  |  | 0.3 to 30 nM | 0.01 to 1 nM |
| Cn1ccn(-c2ccc(-c3cc(F)cc(-c4ccnc(N5CC[S+]([O-])CC5)c4)c3O)cc2Cl)c1=O [Example 690, 1-(3-chloro-5′-fluoro-2′-hydroxy-3′-(2-(1-oxidothiomorpholino)pyridin-4-yl)-[1,1′-biphenyl]-4-yl)-3-methyl-1H-imidazol-2(3H)-one] |  |  | 30 to 300 nM | 0.01 to 1 nM |
| Cc1cc(-c2cncc(N3CC[C@H](N)C3)c2)c(O)c(-c2ccc(-n3ccn(C)c3=O)c(Cl)c2)c1 [Example 509, (S)-1-(3′-(5-(3-aminopyrrolidin-1-yl)pyridin-3-yl)-3-chloro-2′-hydroxy-5′-methyl-[1,1′-biphenyl]-4-yl)-3-methyl-1H-imidazol-2(3H)-one] |  |  | 0.3 to 30 nM | 1 to 10 nM |
| Cn1ccn(-c2ccc(-c3cc(F)cc(-c4ccnc(-c5cccnc5)c4)c3O)cc2Cl)c1=O [Example 480, 1−(3′-([2,3′-bipyridin]-4-yl)-3-chloro-5′-fluoro-2′-hydroxy-[1,1′-biphenyl]-4-yl)-3-methyl-1H-imidazol-2(3H)-one] |  |  | 300 to 3000 nM | 1 to 10 nM |
| CC(=O)NCc1ncc(-c2cc(F)cc(-c3ccc(N4CCN(C)C4=O)c(Cl)c3)c2O)cc1N1CCNCC1 [Example 370, N-((5-(3′-chloro-5-fluoro-2-hydroxy-4′-(3-methyl-2-oxoimidazolidin-1-yl)-[1,1′-biphenyl]-3-yl)-3-(piperazin-1-yl)pyridin-2-yl)methyl)acetamide] |  |  | 30 to 300 nM | 1 to 10 nM |
| Cn1ccn(-c2ccc(-c3cc(F)cc(-c4ccnc(N5CCCC6(CCCN6)C5)c4)c3O)cc2Cl)c1=O (stereo not drawn) [Example 694, 1-(3′-(2-(1,7-diazaspiro[4.5]decan-7-yl)pyridin-4-yl)-3-chloro-5′-fluoro-2′-hydroxy-[1,1′-biphenyl]-4-yl)-3-methyl-1H-imidazol-2(3H)-one] |  |  | 0.3 to 30 nM | 1 to 10 nM |
| O=C1CCCN1c1ccc(-c2cccc(-c3ccnc(N4CCNCC4)c3)c2O)cc1Cl [Example 209, 1-(3-chloro-2′-hydroxy-3′-(2-(piperazin-1-yl)pyridin-4-yl)-[1,1′-biphenyl]-4-yl)pyrrolidin-2-one] |  |  | 30 to 300 nM | 1 to 10 nM |
| CC(=O)Nc1ccc(-c2cccc(-c3ccnc(N4CCC(O)CC4)c3)c2O)cc1F [Example 272, N-(3-fluoro-2′-hydroxy-3′-(2-(4-hydroxypiperidin-1-yl)pyridin-4-yl)-[1,1′-biphenyl]-4-yl)acetamide] |  |  | 300 to 3000 nM | 10 to 100 nM |
| C[C@@H]1CN(c2cc(-c3cc(F)cc(-c4ccc(-n5ccn(C)c5=O)c(Cl)c4)c3O)cn3ccnc23)CCN1 [Example 584] |  |  | 0.3 to 30 nM | 0.01 to 1 nM |
| CC(=O)Nc1ccc(-c2cccc(-c3cccc(N4CCNC(=O)C4)c3)c2O)cc1F [Example 254, N-(3-fluoro-2′-hydroxy-3″-(3-oxopiperazin-1-yl)-[1,1′:3′,1″-terphenyl]-4-yl)acetamide] |  |  | ≥ 3000 nM | 10 to 100 nM |
| CC(=O)Nc1ccc(-c2cc(F)cc(-c3ccc(C#N)c(N4CCNCC4)c3)c2O)cc1F [Example 235, N-(4″-cyano-3,5′-difluoro-2′-hydroxy-3″-(piperazin-1-yl)-[1,1′:3′,1″-terphenyl]-4-yl)acetamide] |  |  | 30 to 300 nM | 1 to 10 nM |
| COC(=O)OCOc1c(-c2ccc(-n3ccn(C)c3=O)c(Cl)c2)cc(F)cc1-c1cnc(C)c(N2CCN(C(C)C)CC2)c1 [Example 878] | 0.3 to 30 nM | > 100 nM |  |  |
| COCCN1CCN(c2cc(-c3cc(F)cc(-c4ccc(-n5ccn(C)c5=O)c(Cl)c4)c3O)ccn2)CC1 [Example 645, 1-(3-chloro-5′-fluoro-2′-hydroxy-3′-(2-(4-(2-methoxyethyl)piperazin-1-yl)pyridin-4-yl)-[1,1′-biphenyl]-4-yl)-3-methyl-1H-imidazol-2(3H)-one] |  |  | 0.3 to 30 nM | 0.01 to 1 nM |
